Measured values reported in patent US9867795B2, “Nitrated lipids and methods of making and using thereof” (The UAB Research Foundation, priority 2004, dated 2018).
Read-outs that look alike come from different tables or passages of the source. Blank lines part the entries; values can stand above or below the compound they belong to.

Columns and labels:
hPPARγ = molecular target: T1, hPPARγ (Homo sapiens, UniProt P37231); test: CV-1 PPRE×3 TK-Luciferase transient transfection assay; format: cell-based; details: for activation of PPARγ reporter gene expression compared with vehicle control: 1 and 3 μM, CV-1 cells, PPRE reporter; for PPARγ-dependent reporter gene expression by LNO2 decay products, oxidized linoleic acid derivatives and •NO donors: PPARγ-transfected CV-1 cells, FIG. 8C
T1 construct: For assessing full-length PPAR receptors, CV-1 cells were transiently co-transfected; expressed in transfected cells; host or cells: CV-1 cells
T1 sequence (P37231 1-505): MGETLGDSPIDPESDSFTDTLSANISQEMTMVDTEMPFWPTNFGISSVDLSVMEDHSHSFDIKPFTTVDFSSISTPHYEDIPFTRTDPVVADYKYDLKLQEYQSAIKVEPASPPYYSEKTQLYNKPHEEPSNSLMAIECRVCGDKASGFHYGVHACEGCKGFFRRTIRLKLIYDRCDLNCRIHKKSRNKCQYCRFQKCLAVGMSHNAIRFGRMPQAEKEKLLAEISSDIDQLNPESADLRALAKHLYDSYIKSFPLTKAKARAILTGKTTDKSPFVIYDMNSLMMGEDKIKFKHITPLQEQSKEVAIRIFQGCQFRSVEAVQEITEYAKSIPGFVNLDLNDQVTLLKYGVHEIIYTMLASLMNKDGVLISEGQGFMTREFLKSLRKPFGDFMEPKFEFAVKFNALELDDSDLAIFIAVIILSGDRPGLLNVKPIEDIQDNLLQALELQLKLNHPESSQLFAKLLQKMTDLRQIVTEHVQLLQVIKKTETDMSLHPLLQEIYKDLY
Text: Cell Transient Transfection Assay. […] Then, cells were transiently co-transfected with a plasmid containing the luciferase gene under regulation by four Gal4 DNA binding elements (UASG×4 TK-Luciferase, a gift from Dr. Ronald M. Evans), in concert with plasmids containing the ligand binding domain for the different nuclear receptors fused to the Gal4 DNA binding domain. For assessing full-length PPAR receptors, CV-1 cells were transiently co-transfected with a plasmid containing the luciferase gene under the control of three tandem PPAR response elements (PPRE) (PPRE×3 TK-Luciferase) and hPPARγ, hPPARα or hPPARδ expression plasmids, respectively. In all cases, fluorescence protein (GFP) expression plasmid was co-transfected as the control for the transfection efficiency. Twenty-four hours after the transfection, cells were cultured for another 24 hours in Optium-MEM (Invitrogen, Carlsbad, Calif.). Then, cells were treated with different compounds as indicated in figures for 24 hours in Optium-MEM. Reporter luciferase assay kits from Promega (Madison, Wis.) were used to measure the luciferase activity according to the manufacturer's instructions with a luminometer (Victor II, Perkin-Elmer). Luciferase activity was normalized by GFP units. Each condition was performed at least in triplicates in each experiment.
PPAR transient transfection assay. […] Twelve hours before transfection, the media was removed and antibiotic-free media was applied. Cells were transiently co-transfected with a plasmid containing the luciferase gene under the control of three tandem PPAR response elements (PPRE) (PPRE×3 TK-Luciferase) and PPARγ, PPARα or PPARδ expression plasmids, respectively. In all cases, fluorescence protein (GFP) expression plasmid was co-transfected as the control for transfection efficiency. Twenty-four hours after transfection, cells the returned to OptiMEM (Invitrogen, Carlsbad, Calif.) for 24 hr and then treated as indicated for another 24 hr. Reporter luciferase assay kits from Promega (Madison, Wis.) were used to measure the luciferase activity according to the manufacturer's instructions with a luminometer (Victor II, Perkin-Elmer). Luciferase activity was normalized by GFP units. Each condition was performed in triplicate in each experiment (n>3).

[1] = tested on: human vascular endothelial cells and macrophages; test: Whole Human Genome Oligo Array gene expression; format: cell-based; details: 24 hours; LNO2O 2.5 mM, linoleic acid 2.5 μM
Method: The nitroalkenes of the present invention also display regulatory actions towards the expression of genes related to inflammatory responses, cell growth, cell differentiation, cell signaling, cell death (apoptosis) and metabolism. For example, nitrolinoleate regulates gene expression in human vascular endothelial cells and macrophages. Cells were stimulated with vehicle and linoleic acid (2.5 μM, the latter two treatments as controls) and LNO2O ([…]) for 24 hours. The total RNA was purified with a Qiagen Kit and analyzed with a Whole Human Genome Oligo Array (G4112A, 41K Genes, Agilent). […] In contrast, the native (precursor) fatty acid, linoleic acid, only regulates 14 genes, with an up-regulation of 5 genes and the down-regulation of 9 genes.

Human PPARγ1 (GST-PPARγ) [2] = molecular target: T2, Human PPARγ1 (GST-PPARγ) (Homo sapiens, UniProt P37231); test: PPARγ competition binding assay ([^3H]Rosiglitazone displacement); details: calculated / estimated
T2 sequence (P37231 1-477 isoform P37231-2): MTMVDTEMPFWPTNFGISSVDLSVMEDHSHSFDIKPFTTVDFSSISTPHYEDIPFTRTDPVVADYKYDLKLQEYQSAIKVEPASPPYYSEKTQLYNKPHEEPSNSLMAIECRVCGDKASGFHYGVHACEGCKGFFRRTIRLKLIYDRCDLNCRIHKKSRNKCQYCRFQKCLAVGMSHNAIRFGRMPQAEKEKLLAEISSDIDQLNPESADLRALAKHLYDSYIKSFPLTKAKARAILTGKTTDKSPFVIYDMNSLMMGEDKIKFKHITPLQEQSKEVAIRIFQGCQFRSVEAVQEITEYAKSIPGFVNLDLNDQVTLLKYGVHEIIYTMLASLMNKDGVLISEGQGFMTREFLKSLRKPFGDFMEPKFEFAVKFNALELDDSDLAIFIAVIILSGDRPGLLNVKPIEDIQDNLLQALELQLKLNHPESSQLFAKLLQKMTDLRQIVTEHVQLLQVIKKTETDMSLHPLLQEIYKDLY
Method: PPARγ Competition Binding Assay. Human PPARγ1 cDNA was inserted into pGEX from Amersham Biosciences Corp (Piscataway, N.J.) containing the gene encoding glutathione S-transferase (GST). GST-PPARγ protein induction and receptor binding was assessed as previously described (17).

Human PPARγ1 (GST-PPARγ) [3] = molecular target: T2, Human PPARγ1 (GST-PPARγ); details: read-out: previously reported Ki for PPARγ; cited from earlier work
NF-kB pathways = test: NF-kB pathway activity (NFkB-response element luciferase reporter, IkB degradation); format: cell-based; details: reporter in response to TNFa; IkB degradation in response to E. coli LPS

activation of PPARγ reporter gene expression compared with vehicle control (hPPARγ): no significant activation
Compound: CCCCCC=CC=CCCCCCCCCC(=O)O [CLA2, Δ^10,12-conjugated linoleic acid]

activation of PPARγ reporter gene expression compared with vehicle control (hPPARγ): no significant activation
Compound: CCCCCCCC/C=C\CCCCCCCCOC[C@@H](O)COP(=O)(O)O [LPA-18:1, 1-O-9-(Z)-octadecenyl-2-hydroxy-sn-glycero-3-phosphate]

Ki (Human PPARγ1 (GST-PPARγ) [2]): > 1000 nM | activation of PPARγ reporter gene expression compared with vehicle control (hPPARγ): no significant activation | activity of NF-kB pathways (NF-kB pathways): not
Compound: CCCCC/C=C\C/C=C\CCCCCCCC(=O)O [linoleic acid, reference compound]
number of genes down-regulated [1]: 9 genes | number of genes regulated [1]: 14 genes | number of genes up-regulated [1]: 5 genes | Ki (Human PPARγ1 (GST-PPARγ) [3]): 1.7 to 17 µM | expression of adipocyte markers (PPARγ2 and aP2) (3T3-L1 preadipocytes; immunoblot of cell lysate): not detected

activation of PPARγ reporter gene expression compared with vehicle control (hPPARγ): no significant activation
Compound: CCCCCCC=CC=CCCCCCCCC(=O)O [CLA1, Δ^9,11-conjugated linoleic acid]

More lines, now with the values behind:

Compound: CCCCCCCCCCCCCCCC(=O)OC[C@H](COP(=O)([O-])OCC[N+](C)(C)C)OC(=O)CCCCCCCC(=O)O [azPC ester, 1-Palmitoy-2-Azelaoyl-sn-Glycero-3-Phosphocholine]
activation of PPARγ reporter gene expression compared with vehicle control (hPPARγ): no significant activation

Compound: CCCCCCCCCCCCCCCCOC[C@H](COP(=O)([O-])OCC[N+](C)(C)C)OC(=O)CCCCCCCC(=O)O [azPC, 1-O-hexadecyl-2-azelaoyl-sn-glycero-3-phosphocholine]
activation of PPARγ reporter gene expression compared with vehicle control (hPPARγ): no significant activation

Compound: CCCCCCCCC=CCCCCCCCC(=O)O [oleic acid, 9-Octadecenoic acid, reference compound]
adipogenesis / adipocyte differentiation (morphology, oil red O) (3T3-L1 preadipocytes; two weeks, Rosiglitazone 3 μM, linoleic acid 10 μM, oleic acid 3 μM): did not induce adipogenesis

Compound: CCCCC/C=C\C=C\C(=O)CCCCCCCC(=O)O [9-oxoODE]
PPARγ-dependent reporter gene expression by LNO2 decay products, oxidized linoleic acid derivatives and •NO donors (hPPARγ): modest PPARγ activation

Compound: CCCCCC(=O)/C=C/C=C\CCCCCCCC(=O)O [13-oxoODE]
PPARγ-dependent reporter gene expression by LNO2 decay products, oxidized linoleic acid derivatives and •NO donors (hPPARγ): no effect
